In ChEMBL document CHEMBL4613295, “Pyrrolyl Pyrazoles as Non-Diketo Acid Inhibitors of the HIV-1 Ribonuclease H Function of Reverse Transcriptase” (ACS Med Chem Lett, 2020):
pEC50, pIC50: −log10 of the molar value. Active and inactive are the calls of the source. No cut-off for these calls is given here.

Columns and labels:
[1] = Stability of compound in 90% human serum at 5 mM and 37 degree C measured after 3 hrs by ESI-RP-HPLC analysis; type: ADME, cell-free; conditions: 5000 µM
[2] = Drug metabolism in 90% human serum assessed as retro-Claisen adduct derived 1-(1-(4-fluorobenzyl)-4-phenyl-1H-pyrrol-3-yl)ethanone metabolite formation at 5 mM and 37 degree C measured after 3 hrs by ESI-RP-HPLC analysis; type: ADME, cell-free; conditions: 5000 µM
[3] = target: T1, Human immunodeficiency virus type 1 reverse transcriptase (Human immunodeficiency virus 1, UniProt Q72547); assay: Inhibition of RNase H activity of recombinant His-tagged HIV-1 group M subtype B reverse transcriptase p66/p51 expressed in Escherichia coli M15 using 18-nucleotide 3'-fluorescein-labeled RNA/5'-dabcyl-labeled DNA hybrid as substrate incubated for 1 hr; design: species or system HIV-1 M:B
[4] = tested on: Human immunodeficiency virus type 1 reverse transcriptase (Human immunodeficiency virus 1), Q72547 [R448A]; assay: Inhibition of recombinat HIV-1 group M subtype B His-tagged reverse transcriptase p66 R448A mutant expressed in Escherichia coli M15; conditions: HIV-1 M:B
[5] = tested on: HIV-1 M:B; assay: Selectivity index, ratio of IC50 for recombinat HIV-1 group M subtype B His-tagged reverse transcriptase p66 Y501A mutant expressed in Escherichia coli M15 to IC50 for RNase H activity of recombinant His-tagged HIV-1 group M subtype B reverse transcriptase p66/p51 expressed in Escherichia coli M15 …
[6] = tested on: Human immunodeficiency virus 1; assay: Antiviral activity against HIV1 infected in human HeLa-CD4-LTR-betagal cells assessed as inhibition of viral replication measured after 24 hrs by fluorescence based analysis; type: functional, organism-based; conditions: Human immunodeficiency virus 1, 24 h
[7] = tested on: Human immunodeficiency virus 1; assay: Selectivity index, ratio of IC50 for wild type HIV1 subtype B NL4-3 6xHis-tagged integrase expressed in Escherichia coli BL21 (DE3) using DNA as substrate preincubated with enzyme for 1 hr followed by addition of recombinant 6xHis-tagged LEDGF/p75 expressed in Escherichia coli BL21 (DE3), DNA donor …
[8] = tested on: Human immunodeficiency virus type 1 reverse transcriptase (Human immunodeficiency virus 1), Q72547 [K540A]; assay: Inhibition of recombinat HIV-1 group M subtype B His-tagged reverse transcriptase p66 K540A mutant expressed in Escherichia coli M15; conditions: HIV-1 M:B
[9] = tested on: HIV-1 M:B; assay: Selectivity index, ratio of IC50 for recombinat HIV-1 group M subtype B His-tagged reverse transcriptase p66 N474A mutant expressed in Escherichia coli M15 to IC50 for RNase H activity of recombinant His-tagged HIV-1 group M subtype B reverse transcriptase p66/p51 expressed in Escherichia coli M15 …
[10] = tested on: Human immunodeficiency virus type 1 reverse transcriptase (Human immunodeficiency virus 1), Q72547 [K451A]; assay: Inhibition of recombinat HIV-1 group M subtype B His-tagged reverse transcriptase p66 K451A mutant expressed in Escherichia coli M15; conditions: HIV-1 M:B
[11] = tested on: HIV-1 M:B; assay: Selectivity index, ratio of IC50 for recombinat HIV-1 group M subtype B His-tagged reverse transcriptase p66 W535A mutant expressed in Escherichia coli M15 to IC50 for RNase H activity of recombinant His-tagged HIV-1 group M subtype B reverse transcriptase p66/p51 expressed in Escherichia coli M15 …
[12] = tested on: HIV-1 M:B; assay: Selectivity index, ratio of IC50 for recombinat HIV-1 group M subtype B His-tagged reverse transcriptase p66 Q475A mutant expressed in Escherichia coli M15 to IC50 for RNase H activity of recombinant His-tagged HIV-1 group M subtype B reverse transcriptase p66/p51 expressed in Escherichia coli M15 …
[13] = target: Human immunodeficiency virus type 1 integrase (Human immunodeficiency virus 1, UniProt Q7ZJM1); assay: Inhibition of wild type HIV1 subtype B NL4-3 6xHis-tagged integrase expressed in Escherichia coli BL21 (DE3) assessed as inhibition of 3'-processing and strand-transfer reactions using DNA as substrate preincubated with enzyme for 1 hr followed by addition of recombinant 6xHis-tagged LEDGF/p75 expressed in Escherichia coli BL21 (DE3), DNA donor substrate and DNA acceptor substrate and further …
Human immunodeficiency virus type 1 integrase, sequence (Q7ZJM1 whole entry): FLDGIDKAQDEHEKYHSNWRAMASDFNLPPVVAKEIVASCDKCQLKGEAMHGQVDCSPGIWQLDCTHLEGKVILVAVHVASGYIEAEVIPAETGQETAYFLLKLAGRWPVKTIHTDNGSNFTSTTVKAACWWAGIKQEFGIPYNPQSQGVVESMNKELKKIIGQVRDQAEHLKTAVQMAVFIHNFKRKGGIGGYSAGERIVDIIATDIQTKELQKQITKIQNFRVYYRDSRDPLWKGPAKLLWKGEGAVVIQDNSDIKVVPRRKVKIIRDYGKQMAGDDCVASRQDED

[14] = target: T1, Human immunodeficiency virus type 1 reverse transcriptase; assay: Inhibition of RNase H activity of recombinant HIV-1 reverse transcriptase p66/p51 expressed in Escherichia coli M15 using 5'-[gamma32P]ATP-labeled-tC5U RNA oligonucleotide/p12 DNA oligonucleotide hybrid as substrate incubated for 30 mins
[15] = Cytotoxicity against human HeLa cells expressing CD4-LTR-beta-gal assessed as reduction in cell viability measured after 24 hrs by CellTiter96 AQueous one solution cell proliferation assay; type: cell-based
[16] = Selectivity index, ratio of CC50 for human HeLa cells expressing CD4-LTR-beta-gal assessed as reduction in cell viability measured after 24 hrs by CellTiter96 AQueous one solution cell proliferation assay to EC50 for HIV1 infected in human HeLa-CD4-LTR-betagal cells measured after 24 hrs by fluorescence based analysis; type: toxicity; conditions: read-out: Ratio CC50/EC50

Compound: O=C(O)/C(O)=C/C(=O)c1cn(Cc2ccc(F)cc2)cc1-c1ccccc1
- Stability [1]: Unstable
- Drug metabolism [2]: Metabolite_Detected

Compound: O=C(O)c1cc(-c2cn(Cc3ccc(F)cc3)cc2-c2ccc(OCc3ccccc3)cc2)n[nH]1
- pIC50 [3]: 5.49

Compound: CCOC(=O)c1cc(-c2cn(Cc3ccc(F)cc3)cc2-c2ccc(OCC(=O)Nc3ccccc3)cc2)n[nH]1
- pIC50 [3]: 5.17

Compound: O=C(COc1ccc(-c2cn(Cc3ccc(F)cc3)cc2-c2cc(C(=O)O)[nH]n2)cc1)Nc1ccccc1
- pIC50 [3]: 4.64

Compound: CCOC(=O)c1cc(-c2cn(Cc3ccc(F)cc3)cc2-c2ccccc2)n[nH]1
- inhibition [4]: inactive
- Ratio IC50 [5]: > 5
- pEC50 [6]: 5.40
- Ratio IC50 [7]: 5
- inhibition [8]: inactive
- Ratio IC50 [9]: > 5
- inhibition [10]: Active
- Ratio IC50 [11]: > 5
- pIC50 [3]: 4.84
- Ratio IC50 [12]: > 5
- pIC50 [13]: 4.12
- Stability [1]: Stable

Compound: CCOC(=O)c1cc(-c2cn(Cc3ccc(F)cc3)cc2-c2ccc(OCc3ccccc3)cc2)n[nH]1
- inhibition [4]: inactive
- Ratio IC50 [5]: > 5
- pEC50 [6]: 4.39 to 5.40
- Ratio IC50 [7]: > 18.5
- inhibition [8]: inactive
- Ratio IC50 [9]: > 5
- inhibition [10]: inactive
- Ratio IC50 [11]: > 5
- pIC50 [3]: 5.27
- Ratio IC50 [12]: > 5

Compound: CCOC(=O)c1cc(-c2cn(C)cc2-c2ccccc2)n[nH]1
- pIC50 [3]: < 4.00

Compound: O=C(O)c1cc(-c2ccccc2-c2ccccc2)n[nH]1
- pIC50 [3]: < 4.00

Compound: Cn1cc(-c2ccccc2)c(-c2cc(C(=O)O)[nH]n2)c1
- pIC50 [3]: < 4.00

Compound: CCOC(=O)c1cc(-c2cn(Cc3cccc4ccccc34)cc2-c2ccc(OCCCCc3ccccc3)cc2)n[nH]1
- pIC50 [3]: 5.07

Compound: CCOC(=O)c1cc(-c2cn(Cc3ccc(F)cc3)cc2-c2ccc(OCc3cccc4ccccc34)cc2)n[nH]1
- pIC50 [3]: 5.26

Compound: O=C(COc1ccc(-c2cn(Cc3ccc(F)cc3)cc2-c2cc(C(=O)O)[nH]n2)cc1)Nc1ccc(C(=O)O)cc1
- pIC50 [3]: 4.15

Compound: CCOC(=O)c1cc(-c2ccccc2-c2ccccc2)n[nH]1
- pIC50 [3]: < 4.00

Compound: O=C(O)c1cc(-c2cn(Cc3ccc(F)cc3)cc2-c2ccc(OCCCCc3ccccc3)cc2)n[nH]1
- pIC50 [3]: 6.57

Compound: O=C(O)c1cc(-c2ccn(Cc3ccc(F)cc3)c2)n[nH]1
- pIC50 [3]: < 4.00

Compound: CCOC(=O)c1cc(-c2cn(CCCCc3ccccc3)cc2-c2ccccc2)n[nH]1
- pIC50 [3]: 4.01

Compound: O=C(O)c1cc(-c2cn(Cc3ccc(F)cc3)cc2-c2ccc3ccccc3c2)n[nH]1
- pIC50 [3]: 4.86

Compound: CCOC(=O)c1cc(-c2ccn(Cc3ccc(F)cc3)c2)n[nH]1
- pIC50 [3]: < 4.00

Compound: O=C(O)c1cc(-c2ccccc2)n[nH]1
- pIC50 [3]: < 4.00

Compound: CCOC(=O)c1cc(-c2cc[nH]c2)n[nH]1
- pIC50 [3]: < 4.00

Compound: CCOC(=O)c1cc(-c2cn(Cc3cccc4ccccc34)cc2-c2ccc(OCc3cccc4ccccc34)cc2)n[nH]1
- pIC50 [3]: 5.38

Compound: CCOC(=O)/C(O)=C/C(=O)/C=C/c1cccn1Cc1ccccc1Cl
- Ratio IC50 [5]: > 5
- pIC50 [14]: 5.14
- inhibition [8]: Active
- Ratio IC50 [9]: > 5
- Ratio IC50 [11]: > 5
- Ratio IC50 [12]: > 5

Compound: CCOC(=O)c1cc(-c2cn(Cc3cccc4ccccc34)cc2-c2ccccc2)n[nH]1
- pIC50 [3]: 5.03

Compound: O=C(O)c1cc(-c2cn(CCCCc3ccccc3)cc2-c2ccccc2)n[nH]1
- pIC50 [3]: 4.20

Compound: CCOC(=O)c1cc(-c2cn(Cc3cccc4ccccc34)cc2-c2ccc(OCC(=O)Nc3ccccc3)cc2)n[nH]1
- pIC50 [3]: 5.10

Compound: CCOC(=O)c1cc(-c2cn(Cc3ccc(F)cc3)cc2-c2ccc(OCCCCc3ccccc3)cc2)n[nH]1
- inhibition [4]: inactive
- Ratio IC50 [5]: > 5
- CC50 at 24 h [15]: > 200 µM
- pEC50 [6]: 4.39 to 5.40
- Ratio IC50 [7]: > 5.6
- inhibition [8]: inactive
- Ratio IC50 [9]: > 5
- inhibition [10]: inactive
- Ratio IC50 [11]: > 5
- pIC50 [3]: 4.75
- Ratio IC50 [12]: > 5
- selectivity ratio at 24 h [16]: > 10

Compound: O=C(O)c1cc(-c2cn(Cc3cccc4ccccc34)cc2-c2ccc(OCc3cccc4ccccc34)cc2)n[nH]1
- pIC50 [3]: 5.76

Compound: O=C(O)c1cc(-c2cn(Cc3ccc(F)cc3)cc2-c2ccc(OCc3cccc4ccccc34)cc2)n[nH]1
- pIC50 [3]: 5.35

Compound: Cc1cc(C(=O)O)n[nH]1
- pIC50 [3]: < 4.00

Compound: O=C(COc1ccc(-c2cn(Cc3cccc4ccccc34)cc2-c2cc(C(=O)O)[nH]n2)cc1)Nc1ccccc1
- pIC50 [3]: 5.24

Compound: O=C(O)c1cc(-c2cn(Cc3ccc(F)cc3)cc2-c2ccc(OCCCCCc3ccccc3)cc2)n[nH]1
- pIC50 [3]: 5.04

Compound: CCOC(=O)c1cc(-c2c[nH]cc2-c2ccccc2)n[nH]1
- pIC50 [3]: < 4.00

Compound: CCOC(=O)/C(O)=C/C(=O)c1cn(Cc2ccc(F)cc2)cc1-c1ccccc1
- Stability [1]: Unstable
- Drug metabolism [2]: Metabolite_Detected

Compound: CCOC(=O)c1cc(-c2cn(Cc3ccc(F)cc3)cc2-c2ccc(OCC(=O)Nc3ccc(C(=O)O)cc3)cc2)n[nH]1
- pIC50 [3]: 5.09

Compound: O=C(O)c1cc(-c2cn(Cc3cccc4ccccc34)cc2-c2ccccc2)n[nH]1
- pIC50 [3]: 4.60

Compound: CCOC(=O)c1cc(-c2ccccc2)[nH]n1
- pIC50 [3]: < 4.00

Compound: CCOC(=O)c1cc(-c2cn(Cc3ccc(F)cc3)cc2-c2ccc3ccccc3c2)n[nH]1
- inhibition [4]: inactive
- Ratio IC50 [5]: > 5
- CC50 at 24 h [15]: > 200 µM
- pEC50 [6]: 4.39 to 5.40
- Ratio IC50 [7]: > 10.6
- inhibition [8]: inactive
- Ratio IC50 [9]: > 5
- inhibition [10]: inactive
- Ratio IC50 [11]: > 5
- pIC50 [3]: 5.03
- Ratio IC50 [12]: > 5
- selectivity ratio at 24 h [16]: > 10

Compound: O=C(O)c1cc(-c2cn(Cc3ccc(F)cc3)cc2-c2ccccc2)n[nH]1
- pIC50 [3]: 4.12
- Stability [1]: Stable

Compound: CCOC(=O)c1cc(C)n[nH]1
- pIC50 [3]: < 4.00

Compound: O=C(O)c1cc(-c2cn(Cc3cccc4ccccc34)cc2-c2ccc(OCCCCc3ccccc3)cc2)n[nH]1
- pIC50 [3]: 5.62

Compound: CCOC(=O)c1cc(-c2cn(Cc3ccc(F)cc3)cc2-c2ccc(OCCCCCc3ccccc3)cc2)n[nH]1
- pIC50 [3]: 4.59

Compound: O=C(O)c1cc(-c2c[nH]cc2-c2ccccc2)n[nH]1
- pIC50 [3]: < 4.00

Compound: O=C(O)c1cc(-c2cc[nH]c2)n[nH]1
- pIC50 [3]: < 4.00
